# Results published in patent US20230210906A1, “Composite 3D Brain Organoids with Optic Structures, Uses Thereof and Culture Medium for Obtaining Them” (priority 2022, published 2023).
# Like-named read-outs stand apart in the source and are kept apart here.
# Key:
# [1] = test system: cells of the cell line IMR90; test: Optic vesicle formation in iPSC-derived 3D brain organoids exposed to retinol acetate; type: cell-based, human; details: for Percentage of organoids with optic vesicles (%): cell line IMR90
# Method: It is important to start differentiation with a well-maintained human iPS cell culture. Cells were splitted once after thawing, mycoplasma tested and checked for appropriate stem cell morphology. Before inducing neural differentiation, iPS cells were dissociated to single cells. Therefore, iPS cells were once carefully washed with pre-warmed DMEM/F12 (Gibco) and then treated for 5 min. at 37° C. with Accutase (Sigma-Aldrich). After cell collection, centrifuging and counting, cells were diluted in neural induction medium (NIM, Stem cell technologies) plus Rockinhibitor (10 μM, Y-27632 2HCl, Selleck Chem) at a concentration of 1×10^5 cells per ml. 100 μl of this cell suspension was given into each well of a 96-well v-bottom low adherent plate and incubated at 37° C. and 5% CO2. Half of the medium was changed every day for 5 days until neurospheres were formed.
# At day 5 of neural induction, the neurospheres were collected carefully with a cut […] pipette tip and transferred to a 100 mm petri dish containing “neurosphere medium” (Table 9). Additionally, 0.1% Matrigel was added to the medium and neurospheres were incubated for 5 days at 37° C. and 5% CO2. At day 3, 2 ml of “optic vesicle 3D brain organoid medium” (Table 10) containing retinol acetate was added. At day 5, neurospheres were transferred to spinner flasks containing 100 ml “optic vesicle 3D brain organoid medium” ([…]) to let the neurospheres developing to optic vesicle containing brain organoids. […] Optic vesicle organoids were collected for experiments at day 20, 30 and 50. For each cell line, we performed at least 3-4 rounds (batches) of optic vesicle 3D brain organoid generation. Each batch comprises of starting from thawing iPSCs until generating optic vesicle organoids. Morphological and functional optic vesicles brain organoids were easily identified by visibly pigmented areas and used for further analyses.
# [2] = test system: sodium channel of organoid neurons (cell lines IMR-90 and GM25256); type: cell-based, human
# [3] = test system: A2E formation and lipofuscin accumulation; details: mouse model of recessive Stargardt's macular degeneration; cited from earlier work
# [4] = test system: rod-bipolar synaptic disjunction; details: cited from earlier work
# [5] = test system: optic vesicle brain organoids (cell line GM25256)
# Method: Optic vesicle organoids of day 40 to 50 were transferred to wells of a 12-wellplate each with 2 ml of optic organoid medium and kept in absolute darkness at 37° C. and 5% CO2 for 24 hours before electroretinogram (ERG) experiments. For ERG, each organoid was placed under red light in an electrode chamber. The electrode chamber was then placed into the dark chamber of the ERG apparatus and connected to the superfusion system containing optic organoid medium. For dose dependent light sensitivity, organoids were exposed to 500 milliseconds long flashes of 2000, 20.000 and 200.000 mlux. Each light intensity was repeated three times in a time interval of 3 min. before the next higher light intensity was applied and responses were recorded. Speed of superfusion was 0.5 ml/min.
# For a third experiment, organoids were superfused in optic organoid medium with higher speed of 2 ml/min. […] For isolating the A-wave by blocking signal transduction from photoreceptors to next the retinal cell layers, 10 mM aspartate was added to the medium after the equilibration time and electric response was continuously recorded. Finally, aspartate was washed out by adding optic organoid medium without aspartate into the system while recording of electric signals as response to flashes.
compound,measurement,setting,value
retinol acetate [Retinoic acetate],Percentage of organoids with optic vesicles (%),[1]; 40 nM,21%
same,Yield of optic vesicle brain organoids,"[1]; 60 nM, among concentrations ranging from 0 to 120 nM",best results (highest yield of optic vesicle brain organoids)
same,Formation of pigmented structures (possibly primordial eye fields),"[1]; 60 nM, at around day 30",reproducibly induced the formation of pigmented structures
same,Percentage of organoids with optic vesicles (%),[1]; 60 nM,80%
same,Percentage of organoids with optic vesicles (%),[1]; 100 nM,15%
same,Percentage of organoids with optic vesicles (%),[1]; 150 nM,10%
same,Percentage of organoids with optic vesicles (%),[1]; 200 nM,10%
same,Percentage of organoids with optic vesicles (%),[1]; 250 nM,8%
"NC1=N[C@H](O)[C@H]2[C@H]3O[C@]4(O)O[C@@H]([C@@H](O)[C@@]2(N1)[C@@H]4O)[C@]3(O)CO [TTX, Tetrodotoxin]",Effect on Na+ current (inward current) of neurons,[2],blocked Na+ current
same,Sensitivity of outward (outwardly rectifying K+) current,[2],TTX insensitive
CC1=C(/C=C/C(C)=C/C=C/C(C)=C\C(=O)O)C(C)(C)CCC1 [isotretinoin],Effect on A2E formation and lipofuscin accumulation,[3],inhibits A2E formation and lipofuscin accumulation
O=S(=O)(c1cccc2cnccc12)N1CCCNCC1 [fasudil],Effect on rod-bipolar synaptic disjunction,[4]; intravitreal injection,effective
same,Effect on rod-bipolar synaptic disjunction,[4]; subretinal injection,reduces rod-bipolar synaptic disjunction
N[C@@H](CC(=O)O)C(=O)O [aspartate],"ERG amplitude upon light flashes, single organoid recording",[5],< −400 pV
same,ERG hyperpolarization after washout of aspartate,[5],−147 pV
same,ERG hyperpolarization on average during aspartate treatment,[5],−278 pV
same,Effect on ERG b-wave,[5],blocked the b-wave
